Data published in patent US20110124678A1, “TREATMENT WITH ALPHA 7-SELECTIVE LIGANDS” (Targacept, Inc., priority 2007, published 2011).
“Also recorded” adds a separate entry of the source.

What was measured:
[1] = molecular target: T1, human α7 nicotinic receptor (Homo sapiens, UniProt P36544); assay: electrophysiology functional assay in Xenopus laevis oocytes; type: cell-based; settings: Xenopus laevis oocytes transiently expressing human α7 nicotinic receptor
T1 construct: expressed in transfected cells; host or cells: Xenopus laevis oocytes

[2] = test system: db/db mice; assay: metabolic phenotyping of obese db/db mice (PTP1B wild type or knockout) treated with α7 agonist; type: in vivo; settings: for Glucose Tolerance Test (GTT): fat db/db PTP-1B WT mice; for plasma TNFα / plasma blood glucose (BG) / plasma glycosylated hemoglobin (Hb1ac) / plasma triglycerides (TG) / body mass / food consumption: fat db/db mice; for plasma triglycerides (TG): PTP-1B wild type; for body mass / food consumption: increase vs lean; for weight gain: obese db− mice, seven weeks of treatment; for food intake decrease induced by the α7 agonist / treatment-induced decrease in plasma glucose: antagonist or inhibitor given with α7 agonist; for body weight gain / weight loss induced by the α7 agonist: antagonist or inhibitor given with α7 agonist (MLA 3 mg/kg gavage; AG-490 1 mg/kg IP)
Excerpt: Body Weight Gain and Food Intake. Several protein tyrosine phosphatases (PTPases) such as PTP1B, LAR, SHP-2 and PTEN have been implicated in the development of insulin resistance.
α7 agonist on Obesity. Animal Models: Parental strains of mice used in these studies were the leptin receptor deficient db/db mice on a C57BL6 background obtained from Jackson Laboratories and PTP1B-null mice on a mixed C57BL6/Balb C background from Dr. Michel Tremblay at the Cancer Institute at McGill University in Montreal, Canada. Because obese db/db mice are infertile, mice were generated as dual heterozygotes, heterozygous for both the mutant leptin receptor and the deleted PTP1B. Dual heterozygotes were interbred, producing 1:4 obese mice and 1:4 PTP-1B null mice. In this breeding configuration 1:16 were dual KO mice. In the fourth generation, mice heterozygous for both genes were bred to PTP-1B null mice heterozygous for the mutant db allele. In this breeding configuration 1:4 mice were obese and 1:8 were dual KO mice. For reasons of parsimony, heterozygotes were preferred to wild-types over controls. Dual heterozygous littermates were used as lean controls and littermates heterozygous for db were used as lean PTP1B KO controls.
Mouse genotyping: At 3 weeks of age, DNA was obtained by tail clip. The genomic DNA from tail clip was used to screen for the presence of the mutant leptin receptor and deletion cassette of PTP-1B using the Polymerase Chain Reaction. Specific genotypes were determining by resolving PCR products with agarose gel electrophoresis. Deletion of PTP-1B was verified by Western analysis using an anti-PTP-1B antibody from Upstate Biotechnology.
In selected cohorts, the α7 antagonist MLA was also given via gavage, concurrently, at 3 mg/kg daily. The JAK2 kinase inhibitor (AG-490) was administered intraperitoneally (IP) at 1 mg/kg daily. Fasting glucose was measured once a week after food withdrawal, with a Precision XL glucometer using tail vein bleeding. HbA1c levels were also measured from these samples with the A1C kit from Metrika, Inc. To assess glucose tolerance, the mice were anesthetized with 2% isoflurane and the left carotid artery and jugular vein cannulated after an overnight fast. A 10 mg bolus of glucose was injected intravenously (iv) via the jugular vein and blood glucose measured every 5 minutes for 40 minutes in a drop of blood from the carotid line. For measurements of blood plasma analytes, a separate group of fasted mice were anesthetized by isoflurane in a rapid induction chamber and swiftly decapitated. Blood was collected in heparin and rapidly centrifuged at 4° C. to remove cells and to obtain plasma, and the samples were frozen for later analyses. Plasma TNF-α concentrations were determined using ELISA assay kits from eBioscience and plasma triglyceride levels were determined using the L-Type TG H test (Wako Diagnostics), an in vitro assay for the quantitative determination of triglycerides in serum or plasma. All data are expressed as mean and SEM. Differences among all groups were compared by One Way ANOVA.

[3] = test system: db/db mice; assay: simvastatin and Compound A in db/db mice, metabolic phenotyping; type: in vivo; settings: fat db/db mice, statin study
Protocol: Animal Models and Metabolic Phenotyping: […] Growth rates of mice were generated by measuring body weight twice weekly for 10 weeks. Daily food intake was measured in mice metabolic cages obtained from Fisher. To assess glucose tolerance, mice were anesthetized with 2% isoflurane and the left carotid artery and jugular vein cannulated after an overnite fast. Fasting blood glucose was assessed as the initial two measurements in the anesthetized mice. A second measurement was used to determine HbA1c levels using the […] kit from Metrika Inc. A 10 mg bolus of glucose was injected into each mouse and blood glucose measure by a drop of blood from the carotid line every 5 minutes for 40 minutes. Glucose was measured with a Precision XL glucometer. At the end of the experiment mice were euthanized by isoflurane overdose. In a second group of mice, fasted mice were anesthetized by isofluorance in a rapid induction chamber and swiftly decapitated. Trunk blood was collected in heparin and rapidly centrifuged to remove blood cells and obtain plasma. Samples were then collected for analyses. Plasma cholesterol, free fatty acids and triglycerides were determined using colorimetric assays from Wako Chemical while plasma TNFα concentration was determined using ELISA assay kits from eBioscience.

[4] = difference between genotypes under treatment
[5] = obese mice, antagonist given with α7 agonist

T1 sequence (P36544 23-502): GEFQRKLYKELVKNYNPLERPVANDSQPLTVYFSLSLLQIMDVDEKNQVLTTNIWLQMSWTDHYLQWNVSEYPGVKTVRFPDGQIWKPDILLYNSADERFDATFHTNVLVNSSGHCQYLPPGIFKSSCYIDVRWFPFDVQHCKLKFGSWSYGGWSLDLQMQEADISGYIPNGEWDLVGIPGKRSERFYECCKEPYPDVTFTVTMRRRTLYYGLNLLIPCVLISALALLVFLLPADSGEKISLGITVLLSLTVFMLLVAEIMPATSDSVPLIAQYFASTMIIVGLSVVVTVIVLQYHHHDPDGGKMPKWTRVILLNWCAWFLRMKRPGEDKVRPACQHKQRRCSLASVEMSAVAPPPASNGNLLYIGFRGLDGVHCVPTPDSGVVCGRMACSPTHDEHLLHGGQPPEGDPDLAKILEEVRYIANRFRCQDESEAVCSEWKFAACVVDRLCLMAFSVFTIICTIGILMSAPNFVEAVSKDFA

| Compound | Glucose Tolerance Test (GTT) [2] | plasma TNFα [2] | plasma blood glucose (BG) [2] | plasma glycosylated hemoglobin (Hb1ac) [2] | plasma triglycerides (TG) [2] | body mass [2] | food consumption [2] | weight gain [2] | food intake decrease induced by the α7 agonist ([2]; obese mice) | treatment-induced decrease in plasma glucose ([2]; obese mice) | body weight gain / weight loss induced by the α7 agonist ([2]; obese mice) | further results |
| --- | --- | --- | --- | --- | --- | --- | --- | --- | --- | --- | --- | --- |
| O=C(N[C@@H]1C2CCN(CC2)[C@H]1Cc1cccnc1)c1cc2ccccc2o1 (single isomer, unassigned) [Compound C] | normalize insulin resistance glucose tolerance test; also recorded: significant increase in deposition | reduce pro-inflammatory cytokines; also recorded: significantly inhibited | normalize glucose levels; also recorded: significantly inhibited | decrease glycated hemoglobin; also recorded: significantly inhibited | reduce triglycerides; also recorded: significantly inhibited | significantly inhibited | significantly inhibited | reduce weight gain |  |  |  | Emax [1]: > 50%; body mass, fat wild type vs fat PTP-1B KO [2, 4]: no significant difference; food consumption, fat wild type vs fat PTP-1B KO [2, 4]: no significant difference; plasma blood glucose, fat wild type vs fat PTP-1B KO [2, 4]: no significant difference |
| N#C/C(=C/c1ccc(O)c(O)c1)C(=O)NCc1ccccc1 [AG-490, reference compound] |  |  |  |  |  |  |  |  | significantly inhibited; also recorded: partially inhibits effects of Compound A | significantly prevented | significantly inhibited |  |
| Cc1ccc(C(=O)N[C@@H]2C3CCN(CC3)[C@H]2Cc2cccnc2)s1 [Compound A, 5-methyl-N-[(2S,3R)-2-(pyridin-3-ylmethyl)-1-azabicyclo[2.2.2]oct-3-yl]thiophene-2-carboxamide] | normalize insulin resistance glucose tolerance test | reduce pro-inflammatory cytokines | normalize glucose levels | decrease glycated hemoglobin | reduce triglycerides |  |  | reduce weight gain |  |  |  | % glycated hemoglobin (% Hb1ac) [3]: significantly inhibited; body mass [3]: significantly inhibited; food consumption [3]: significantly inhibited; plasma TNFα [3]: significantly inhibited; plasma blood glucose (BG) [3]: significantly inhibited; plasma cholesterol (Chol) [3]: significantly inhibited; plasma triglycerides (TG) [3]: significantly inhibited |
| O=C(N[C@@H]1C2CCN(CC2)[C@H]1Cc1cccnc1)c1ccc(-c2ccccn2)s1 [Compound B, (2S,3R)—N-(2-((3-pyridinyl)methyl)-1-azabicyclo[2.2.2]oct-3-yl)-5-(2-pyridinyl)thiophene-2-carboxamide] | normalize insulin resistance glucose tolerance test | reduce pro-inflammatory cytokines; also recorded: significantly inhibited | normalize glucose levels; also recorded: significantly inhibited | decrease glycated hemoglobin; also recorded: significantly inhibited | reduce triglycerides; also recorded: significantly inhibited | significantly inhibited | significantly inhibited | reduce weight gain |  |  |  |  |
| CCN1C[C@]2(COC(=O)c3ccccc3N3C(=O)C[C@H](C)C3=O)CC[C@H](OC)[C@@]34[C@@H]5C[C@H]6[C@H](OC)[C@@H]5[C@](O)(C[C@@H]6OC)[C@](O)([C@@H](OC)[C@H]23)[C@@H]14 [MLA, reference compound] |  |  |  |  |  |  |  |  | no significant differences | no significant decrease in plasma glucose | no significant differences | decrease of plasma TNF-α by the α7 agonist [2, 5]: blocked; increased insulin sensitivity induced by the α7 agonist [2, 5]: abrogated; also recorded: suppressed; normalization of triglycerides by the α7 agonist [2, 5]: blocked |
